Test results published in patent publication US20230241121A1, “COMPOSITIONS AND METHODS RELATING TO EXOSOMES DERIVED FROM HUMAN DERMAL PAPILLA CELLS” (NORTH CAROLINA STATE UNIVERSITY, priority 2020, published 2023).

Key:
depilated C57BL/6 mice = assay: Dorsal hair regrowth in depilated mice; type: in vivo
Text: Animals and in vivo studies. Seven-week-old male C57BL/6 mice were purchased from Jackson laboratory and allowed to adapt to their new environment for 1 week. Hair was removed by using depilatory cream to observe the pink skin. Then, animals were randomly divided into groups (n=5) randomly to investigate hair regrowth. Minoxidil was topically applied daily as a positive control. Other treatments were given subcutaneously. All work with mice was in accordance with IACUC. Cell treatment dose: 1.0×10^6 cells in 200 μL PBS were subcutaneously injected into 10 spots (20 μL per site) on the left side of the dorsal skin. Exosome treatment dose: 2.0×10^9 exosomes in 200 μL PBS were subcutaneously injected to 10 spots (20 μL per site) on the left side of the backs. Negative control, miR-218-5p mimics and inhibitors (Sigma-Aldrich): administered according to the protocol provided by in vivo-jetPEI™ (Polyplus transfection). In brief, mice received ten injections per depilated dorsal skin. 400 ng miRNA mimic or inhibitor was dissolved in 90 μl 5% glucose (w/v) solution, and then 10 μl in vivo-jet PEI solution was added. Vortex-mix the solution immediately and incubate for 15 minutes at room temperature before injection. […]
The state of hair re-growth in depilated mice was photographed on days 0, 10, 15, and 20, and hair growth area was analyzed via morphological observation (FIGS. 3A-3D). […]

β-catenin = assay: Immunostaining of β-catenin in dorsal skin hair follicles ten days after treatment; type: in vivo, C57BL/6 mice; settings: treated side, day 10
Text: (§1) Animals and in vivo studies. Seven-week-old male C57BL/6 mice were purchased from Jackson laboratory and allowed to adapt to their new environment for 1 week. Hair was removed by using depilatory cream to observe the pink skin. Then, animals were randomly divided into groups (n=5) randomly to investigate hair regrowth. Minoxidil was topically applied daily as a positive control. Other treatments were given subcutaneously. All work with mice was in accordance with IACUC. Cell treatment dose: 1.0×10^6 cells in 200 μL PBS were subcutaneously injected into 10 spots (20 μL per site) on the left side of the dorsal skin. Exosome treatment dose: 2.0×10^9 exosomes in 200 μL PBS were subcutaneously injected to 10 spots (20 μL per site) on the left side of the backs. Negative control, miR-218-5p mimics and inhibitors (Sigma-Aldrich): administered according to the protocol provided by in vivo-jetPEI™ (Polyplus transfection). In brief, mice received ten injections per depilated dorsal skin. 400 ng miRNA mimic or inhibitor was dissolved in 90 μl 5% glucose (w/v) solution, and then 10 μl in vivo-jet PEI solution was added. Vortex-mix the solution immediately and incubate for 15 minutes at room temperature before injection. Control groups were injected with mimic control.
(§2) Skin tissue histology. Mice were euthanized and the whole dorsal skin was removed. […]

Ki67 = assay: Immunostaining of Ki67 in dorsal skin hair follicles ten days after treatment; type: in vivo, C57BL/6 mice; settings: day 10
Text: as §1, §2

CD133 = assay: Immunostaining of CD133 in dorsal skin hair follicles ten days after treatment; type: in vivo, C57BL/6 mice; settings: treated side, day 10
Text: as §1, §2

Nc1cc(N2CCCCC2)nc(N)[n+]1[O-] [5% minoxidil, minoxidil]
fur coverage (depilated C57BL/6 mice; day 15, treated side): 35% | fur coverage (depilated C57BL/6 mice; day 15, untreated side): 10% | expression of β-catenin (β-catenin positive cells) (β-catenin): 2.3% | Ki67 signals (Ki67; non-treated side): 7.1% | Ki67 signals (Ki67; treated side): 37.2% | expression of CD133 (CD133 positive cells) (CD133): 7.2%
